The text below walks through data of paper PMC11618438 (ACS Omega, 2024).

Assay [1] has as its target T1, MT1 (Homo sapiens, UniProt P48039). Briefly: ERK activation. The assay is classed as cell-based. Particulars: for EC50: hMT1 cells, 5 min stimulation.
In assay [2] the target is T1, MT1. Briefly: 2-[125I]-iodomelatonin competition binding assay, membranes of HEK293 cells. Particulars: for Ki: 2-[125I]MLT binding assay, hMT1 stably expressed in HEK293 cells; for drop in binding affinity: MT1, relative to 19c.
The target of assay [3] is T1, MT1. Nature of the assay: β-arrestin2 recruitment BRET assay in HEK293 cells. The assay is classed as cell-based. Particulars: for EC50: hMT1 HEK293 cells, BRET; for effect on ß-arrestin recruitment: Figure S2C. On the technique in general: Activated receptors often draw arrestin, which recruitment assays turn into a signal.
For assay [4], the target named is T1, MT1. Nature of the assay: cAMP accumulation assay, forskolin-stimulated HEK293 cells. Particulars: for EC50: hMT1 HEK293 cells, 1 μM forskolin. The assay is classed as cell-based. (Changes in cAMP serve as a functional read-out for many G protein-coupled receptors.)
Another assay has as its target T2, human ERα (Homo sapiens, UniProt P03372).
T2 sequence (P03372 1-595): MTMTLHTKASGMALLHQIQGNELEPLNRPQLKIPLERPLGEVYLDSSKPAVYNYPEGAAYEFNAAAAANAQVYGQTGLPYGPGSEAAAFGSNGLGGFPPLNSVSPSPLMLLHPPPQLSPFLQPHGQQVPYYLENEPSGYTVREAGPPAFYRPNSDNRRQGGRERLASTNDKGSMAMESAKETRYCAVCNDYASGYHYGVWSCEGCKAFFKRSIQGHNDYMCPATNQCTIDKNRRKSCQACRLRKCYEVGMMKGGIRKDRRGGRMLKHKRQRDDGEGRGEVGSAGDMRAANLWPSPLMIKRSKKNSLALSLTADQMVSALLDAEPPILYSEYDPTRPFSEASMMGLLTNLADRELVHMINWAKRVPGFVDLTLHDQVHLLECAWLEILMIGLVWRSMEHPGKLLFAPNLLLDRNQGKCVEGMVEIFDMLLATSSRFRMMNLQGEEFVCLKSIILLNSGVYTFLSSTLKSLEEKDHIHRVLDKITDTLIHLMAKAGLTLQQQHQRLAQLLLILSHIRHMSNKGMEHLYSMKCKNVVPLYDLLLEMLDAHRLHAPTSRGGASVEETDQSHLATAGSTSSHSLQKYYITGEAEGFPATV
Briefly: cell-based.

A further assay has as its system MDA-MB-231. Briefly: Cell survival by MTT assay, MDA-MB-231. The format is cell-based. Particulars: IC50 MLT+TAM versus IC50 compound.
The test system of assay [5] is human MT1 receptors expressed in CHO cells. Particulars: [125I]-iodomelatonin; cited from earlier work.
A further assay deals with HT-1080. Nature of the assay: Cell survival by MTT assay, HT-1080. The assay is classed as cell-based. Particulars: IC50 MLT+TAM versus IC50 compound.
Where [6] appears, read: pEC50 ± S.E.M., ß-arrestin recruitment.
The mark [7] stands for this setting: pEC50 ± S.E.M., cAMP accumulation.

T1 sequence (P48039 whole entry): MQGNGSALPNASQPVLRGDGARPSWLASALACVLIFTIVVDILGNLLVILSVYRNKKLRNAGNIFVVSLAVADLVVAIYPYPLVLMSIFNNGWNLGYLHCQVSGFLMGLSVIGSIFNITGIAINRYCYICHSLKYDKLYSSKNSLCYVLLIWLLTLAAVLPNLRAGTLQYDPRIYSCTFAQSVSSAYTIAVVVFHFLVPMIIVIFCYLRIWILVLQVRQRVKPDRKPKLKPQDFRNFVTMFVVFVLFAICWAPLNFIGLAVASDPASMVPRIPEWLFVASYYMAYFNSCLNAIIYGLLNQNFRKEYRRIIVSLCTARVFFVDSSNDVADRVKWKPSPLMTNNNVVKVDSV

In the case of `CC/C(=C(\c1ccccc1)c1ccc(OCCN(C)CCCCCC(=O)NCCCOc2ccc3[nH]cc(CCNC(C)=O)c3c2)cc1)c1ccccc1` [16b, (Z)-N-(3-((3-(2-Acetamidoethyl)-1H-indol-5-yl)oxy)propyl)-6-((2-(4-(1,2-diphenylbut-1-en-1-yl)phenoxy)ethyl)(methyl)amino)hexanamide], the EC50 (usually the concentration at which the effect is half-maximal) on MT1 [1] (EC50, ERK activation) was 16 nM; on MT1 [1] (pEC50 ± S.E.M., ERK activation) it was 13.8 nM; at MT1 [3] (EC50, ß-arrestin recruitment) it was 999 nM; on MT1 [3] (setting [6]), 955 nM; on MT1 [4] (EC50, cAMP accumulation), 987 nM; on MT1 [4] (setting [7]), 871 nM. Also, the Ki (usually the dissociation constant of the complex between target and ligand, obtained from inhibition or displacement) turned out to be 22 nM on MT1 [2] (Ki) and 20 nM at MT1 [2] (pKi ± S.E.M.).

Consider `CC/C(=C(\c1ccccc1)c1ccc(OCCN(C)C(=O)CCCCOc2ccc3[nH]cc(CCNC(C)=O)c3c2)cc1)c1ccccc1` [19a, (Z)-5-((3-(2-Acetamidoethyl)-1H-indol-5-yl)oxy)-N-(2-(4-(1,2-diphenylbut-1-en-1-yl)phenoxy)ethyl)-N-methylpentanamide], for which the IC50 (usually the midpoint of a concentration-inhibition curve) against human ERα is about 100 nM. At MT1 [1] (cells expressing MT1), the “effect on ERK activation” value was “no effect”. The “sensitization versus combined melatonin and tamoxifen treatment” value in the assay on MDA-MB-231 came to 3.0 fold. The compound also showed a Ki on MT1 [2] (Ki) of over 10000 nM. In addition, the “drop in binding affinity” value at MT1 [2] is reported as > 1,000 fold. The “effect on ß-arrestin recruitment” value at MT1 [3] is “no effect”. In addition, the half-maximal effective concentration (EC50) on MT1 [3] (setting [6]) was 977 nM; at MT1 [4] (EC50, cAMP accumulation) it was over 10000 nM; at MT1 [4] (setting [7]), 8910 nM.

As for `CC/C(=C(\c1ccccc1)c1ccc(OCCN(C)C(=O)CCCCCCOc2ccc3[nH]cc(CCNC(C)=O)c3c2)cc1)c1ccccc1` [19c, (Z)-7-((3-(2-Acetamidoethyl)-1H-indol-5-yl)oxy)-N-(2-(4-(1,2-diphenylbut-1-en-1-yl)phenoxy)ethyl)-N-methylheptanamide], at human ERα, the IC50 is about 100 nM. In addition, the EC50 worked out at 161 nM at MT1 [1] (EC50, ERK activation); 61.7 nM at MT1 [1] (pEC50 ± S.E.M., ERK activation); 2230 nM at MT1 [3] (EC50, ß-arrestin recruitment); 1070 nM at MT1 [3] (setting [6]); 209 nM at MT1 [4] (setting [7]). Besides, the Ki came to 2.8 nM on MT1 [2] (Ki) and 2.63 nM at MT1 [2] (pKi ± S.E.M.). In addition, on MT1 [4] (MT1), the “right shift of cAMP EC50 compared to Ki” value is 2 logs.

Regarding `COc1ccc2[nH]cc(CCNC(C)=O)c2c1` [MLT, melatonin], in assay [5], the “affinity, competition binding” value is reported as 8.6 nM.

With `CC/C(=C(\c1ccccc1)c1ccc(OCCN(C)C(=O)CCCCCOc2ccc3[nH]cc(CCNC(C)=O)c3c2)cc1)c1ccccc1` [compound 19b, (Z)-6-((3-(2-Acetamidoethyl)-1H-indol-5-yl)oxy)-N-(2-(4-(1,2-diphenylbut-1-en-1-yl)phenoxy)ethyl)-N-methylhexanamide], the EC50 was determined as 178 nM on MT1 [1] (EC50, ERK activation); 120 nM on MT1 [1] (pEC50 ± S.E.M., ERK activation); 4660 nM at MT1 [3] (EC50, ß-arrestin recruitment); 3890 nM at MT1 [3] (setting [6]); 389 nM on MT1 [4] (EC50, cAMP accumulation); 372 nM at MT1 [4] (setting [7]). Besides, the figures for the Ki on MT1 [2] (Ki) and at MT1 [2] (pKi ± S.E.M.) were 3150 nM and 2950 nM, respectively. Further, the “drop in binding affinity” value on MT1 [2] was > 1,000 fold.

For `CC/C(=C(\c1ccccc1)c1ccc(OCCN(C)CCOCCOCCOc2ccc3[nH]cc(CCNC(C)=O)c3c2)cc1)c1ccccc1` [compound 21, (Z)-N-(2-(5-(2-(2-(2-((2-(4-(1,2-Diphenylbut-1-en-1-yl)phenoxy)ethyl)(methyl)amino)ethoxy)ethoxy)ethoxy)-1H-indol-3-yl)ethyl)acetamide], the EC50 on MT1 [1] (EC50, ERK activation) was 36 nM; at MT1 [1] (pEC50 ± S.E.M., ERK activation) it was 28.2 nM; on MT1 [3] (EC50, ß-arrestin recruitment) it was 197 nM; on MT1 [3] (setting [6]) it was 138 nM; at MT1 [4] (EC50, cAMP accumulation) it was 74.3 nM; at MT1 [4] (setting [7]) it was 63.1 nM. The Ki on MT1 [2] (Ki) stood at 6.5 nM; at MT1 [2] (pKi ± S.E.M.) it was 6.17 nM. Also, the “effect on ß-arrestin recruitment” value at MT1 [3] was “clear partial effect”. Also, in the assay on HT-1080, the “sensitization versus combined melatonin and tamoxifen treatment” value was found to be 3.6 fold.
